Measured values as given in ChEMBL document CHEMBL2016566, “Melanogenesis inhibitory bisabolane-type sesquiterpenoids from the roots of Angelica koreana” (Bioorg Med Chem Lett, 2012).
Values after ≈ are worked out from the molar mass of the structure shown.

Key:
[1] = system: B16; assay: Inhibition of alpha-MSH-stimulated melanogenesis in mouse B16 cells assessed as melanin release after 72 hrs; assay type: functional, cell-based; conditions: for IC50: B16, 72 h
[2] = system: B16; assay: Cytotoxicity against mouse B16 cells assessed as cell viability; assay type: cell-based

Structure (SMILES) | IC50 [1] [µg/mL] | Activity [2] | inhibition [1]
O=c1ccc2cc3ccoc3cc2o1 [PSORALEN] | > 200 | – | –
O=c1cc(CO)occ1O [KOJIC ACID] | 5.5 (≈ 38.7 µM) | – | –
OC[C@H]1O[C@@H](Oc2ccc(O)cc2)[C@H](O)[C@@H](O)[C@@H]1O [ARBUTIN] | 67.9 (≈ 249 µM) | – | –
CC(C)=C/C=C1\O[C@@H]2CC(C)=CC(=O)[C@@H]2[C@]1(C)O [BISABOLANGELONE] | 5.3 (≈ 21.3 µM) | Non-toxic | Dose-dependent effect
CC(C)=C/C=C1\O[C@H]2C[C@](C)(O)CC(=O)[C@H]2[C@@]1(C)O [OSTERIVOLONE D] | 1.9 (≈ 7.13 µM) | Non-toxic | Dose-dependent effect
C=C[C@@H](O)C#CC#C[C@@H](O)/C=C\CCCCCCC [FALCARINDIOL] | 2.9 (≈ 11.1 µM) | Non-toxic | Dose-dependent effect
CO[C@@]1(/C=C/C(C)(C)O)O[C@H]2CC(C)=CC(=O)[C@H]2[C@@]1(C)O [OSTERIVOLONE A] | 1.1 (≈ 3.71 µM) | Non-toxic | Dose-dependent effect
C/C=C(/C)C(=O)O[C@H]1Cc2cc3ccc(=O)oc3cc2OC1(C)C [DECURSINOL ANGELATE] | 5.8 (≈ 17.7 µM) | Non-toxic | Dose-dependent effect
COC(C)(C)/C=C/[C@]1(OC)O[C@H]2CC(C)=CC(=O)[C@H]2[C@@]1(C)O [OSTERIVOLONE B] | 5.6 (≈ 18 µM) | Non-toxic | Dose-dependent effect
CO[C@@]1(C(C=C(C)C)OC(C=C(C)C)[C@]2(O)O[C@H]3CC(C)=CC(=O)[C@H]3[C@@]2(C)O)O[C@H]2CC(C)=CC(=O)[C@H]2[C@@]1(C)O (some centres undefined) [OSTERIVOLONE C] | 4.5 (≈ 8.03 µM) | Non-toxic | Dose-dependent effect
